{"source": "patent US20240294572A1", "about": "“Antimicrobial Peptides” (priority 2021, published 2024)", "format_in_all_cases": "cell-based", "key": {"S. aureus USA300": {"system": "S. aureus USA300", "experiment": "Bacterial membrane depolarization (DiBAC4(3))", "details": "3.1, 6.25, 12.5, and 25 μM; 40 minutes", "method": "The experiment was conducted as described (Marks, et al. (2013) PLOS One 8:e63158). In brief, an overnight culture of S. aureus USA300 was subcultured in a fresh TSB medium and grown to the exponential phase. Cells were spun using centrifugation, washed 2× with PBS, resuspended in twice the volume of PBS containing 25 mM glucose, and incubated at 37° C. for 15 minute. For membrane depolarization measurements, 500 nM (final concentration) of the dye DiBAC4 (3) bis(1,3-dibutylbarbituric acid) trimethine oxonol (ANASPEC, CA) was added, and the reaction mixture was vortexed gently. Aliquots of 90 μL of the energized bacteria solution were loaded to the wells, and the plate was fed into a FLUOstar® Omega microplate reader. Fluorescence was read for 20 minutes at excitation and emission wavelengths of 485 and 520 nm, respectively, to get dye normalization. Then, 10 μL of the peptide solution was added and gently mixed. Fluorescence readings were recorded for 40 minutes, where Triton™ X-100 (0.1%) was used as a positive control."}, "[1]": {"system": "S. aureus USA300 transposon mutant SAUSA300_1967", "experiment": "Antimicrobial susceptibility of transposon mutant", "design": "key: No = no MIC changes of C10-KR8d against the WT and the mutant S. aureus strains measured in 50% TSB", "details": "mutant SAUSA300_1967 versus WT", "method": "(§1) The antimicrobial susceptibility of over 20 MRSA transposon mutants were also tested, based on a transposon library screening, in the presence of LL-37 peptides (Golla, et al. (2020) ACS Infect. Dis., 6:1866-1881). This Nebraska Transposon Mutant Library of S. aureus USA300 consists of 1920 mutants, each with one nonessential gene disabled due to a transposon insertion (Fey, et al. (2013) mBio 4:e00537-12). The correct insertion of the transposon to each Staph mutant had been verified (Golla, et al. (2020) ACS Infect. Dis., 6:1866-1881). Antimicrobial susceptibility to the new peptide C10-KR8d was evaluated in the same manner as MIC assays. Susceptible strains could be inhibited at a peptide concentration lower than the MIC against the wild strain S. aureus JE2."}, "[2]": {"system": "S. aureus USA300 transposon mutant SAUSA300_1503", "experiment": "Antimicrobial susceptibility of transposon mutant", "design": "key: No = no MIC changes of C10-KR8d against the WT and the mutant S. aureus strains measured in 50% TSB", "details": "mutant SAUSA300_1503 versus WT", "method": "as §1"}, "[3]": {"system": "S. aureus USA300 transposon mutant SAUSA300_1867", "experiment": "Antimicrobial susceptibility of transposon mutant", "design": "key: No = no MIC changes of C10-KR8d against the WT and the mutant S. aureus strains measured in 50% TSB", "details": "mutant SAUSA300_1867 versus WT", "method": "as §1"}}, "note": "Non-standard residues stand in square brackets, D forms with d. Residues, ends and D or L forms follow the SMILES beside them. *: point of attachment. Decanoyl = CCCCCCCCCC(=O)*", "data": [{"smiles": "CCCCCCCCCC(=O)N[C@H](CCCCN)C(=O)N[C@H](CCCNC(=N)N)C(=O)N[C@@H](C(=O)N[C@H](Cc1c[nH]c2ccccc12)C(=O)N[C@H](CCC(N)=O)C(=O)N[C@H](CCCNC(=N)N)C(=O)N[C@@H](C(=O)N[C@H](CCCCN)C(N)=O)[C@H](C)CC)[C@H](C)CC", "note": "[Peptide C10-KR8d] (Decanoyl-[dK][dR][dI][dW][dQ][dR][dI][dK]-NH2)", "values": [{"measurement": "membrane depolarization ability (order)", "setting": "S. aureus USA300", "value": "Triton™ X-100>17BIPHE2>C10-KR8d>daptomycin"}, {"measurement": "Susceptible?", "setting": "[1]", "value": "No"}, {"measurement": "Susceptible?", "setting": "[2]", "value": "No"}, {"measurement": "Susceptible?", "setting": "[3]", "value": "No"}]}]}
